According to US20070269503A1, “Combinations of HMG CoA reductase inhibitors and negatively charged phospholipids and uses thereof” (priority 2006, published 2007):
Where two headings read alike, the source gives them in different places.

Assays:
HepG2 cells = settings: cited from earlier work
[1] = Oral PI, plasma HDL cholesterol and apoA-I; assay type: in vivo; settings: conventional formulations, about 5.6 g/day
From the text: The efficacy of orally administered phosphatidyl-inositol(PI) for raising plasma HDL cholesterol and apoA-I levels can be improved considerably (e.g. 2- to 8-fold) by combining PI with an intestinal absorption enhancer (IAE) (U.S. patent application Ser. No. 60/684212, herein incorporated by reference).

[2] = oral PI combined with an intestinal absorption enhancer (IAE); cited from earlier work
[3] = normocholesterolemic male Sprague-Dawley rats; 5.5% by weight of rat chow, approximately 4 g/Kg body weight; cited from earlier work

Compound: CC(C)c1c(C(=O)Nc2ccccc2)c(-c2ccccc2)c(-c2ccc(F)cc2)n1CC[C@@H](O)C[C@@H](O)CC(=O)O [atorvastatin]
- inhibition of cholesterol synthesis (HepG2 cells; concentrations between 0.01 to 10 μM): 45-65%

Compound: phosphatidylinositol [PI]
- increase in apoA-I [1]: ~10%
- increase in plasma HDL cholesterol [1]: ~20%
- improvement of efficacy for raising plasma HDL cholesterol and apoA-I levels [2]: 2- to 8 fold
- inhibition of cholesterol synthesis (HepG2 cells; 11.7 μM): 50%

Compound: Phosphatidic acid [PA]
- decrease in plasma triglycerides [3]: about 40%
- increase in HDL cholesterol [3]: about 2 fold
